Test results reported in article PMC10322960 (European Journal of Drug Metabolism and Pharmacokinetics, 2023).
Where two headings read alike, the source gives them in different places.

Assays:
CYP1A2 = target: T1, CYP1A2 (Homo sapiens, UniProt P05177); format: in vitro ADME
T1 sequence (P05177 1-516): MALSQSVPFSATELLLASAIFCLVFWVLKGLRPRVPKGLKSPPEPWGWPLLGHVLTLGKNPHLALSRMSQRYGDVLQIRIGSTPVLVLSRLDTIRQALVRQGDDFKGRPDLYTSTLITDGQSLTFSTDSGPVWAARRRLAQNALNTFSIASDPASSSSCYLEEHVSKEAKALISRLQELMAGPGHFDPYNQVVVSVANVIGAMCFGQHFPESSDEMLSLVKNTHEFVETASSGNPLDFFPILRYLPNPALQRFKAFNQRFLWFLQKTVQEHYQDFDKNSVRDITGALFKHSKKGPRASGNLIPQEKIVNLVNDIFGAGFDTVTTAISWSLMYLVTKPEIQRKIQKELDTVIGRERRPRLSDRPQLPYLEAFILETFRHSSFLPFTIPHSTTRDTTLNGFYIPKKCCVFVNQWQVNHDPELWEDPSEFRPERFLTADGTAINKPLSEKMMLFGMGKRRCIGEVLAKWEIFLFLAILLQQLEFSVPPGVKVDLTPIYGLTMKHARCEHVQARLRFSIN

CYP3A4 [1] = target: CYP3A4 (Homo sapiens, UniProt P08684); format: in vitro ADME
Sequence of CYP3A4 (Homo sapiens, UniProt P08684) (P08684 whole entry): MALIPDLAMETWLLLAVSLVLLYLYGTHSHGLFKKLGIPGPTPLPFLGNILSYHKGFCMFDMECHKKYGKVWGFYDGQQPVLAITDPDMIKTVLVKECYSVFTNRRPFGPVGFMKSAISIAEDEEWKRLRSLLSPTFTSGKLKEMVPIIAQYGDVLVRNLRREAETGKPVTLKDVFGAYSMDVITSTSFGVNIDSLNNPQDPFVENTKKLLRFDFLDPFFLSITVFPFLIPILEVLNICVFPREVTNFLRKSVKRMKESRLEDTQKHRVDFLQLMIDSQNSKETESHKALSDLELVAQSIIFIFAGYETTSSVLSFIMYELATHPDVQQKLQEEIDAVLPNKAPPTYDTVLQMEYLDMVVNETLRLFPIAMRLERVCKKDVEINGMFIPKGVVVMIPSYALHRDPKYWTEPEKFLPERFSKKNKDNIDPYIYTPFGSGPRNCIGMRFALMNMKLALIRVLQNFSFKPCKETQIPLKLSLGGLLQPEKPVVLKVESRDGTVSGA

OATP1B3 [2] = target: T2, OATP1B3 (Homo sapiens, UniProt Q9NPD5); test: OATP1B3 uptake substrate assay; format: in vitro ADME
T2 sequence (Q9NPD5 1-702): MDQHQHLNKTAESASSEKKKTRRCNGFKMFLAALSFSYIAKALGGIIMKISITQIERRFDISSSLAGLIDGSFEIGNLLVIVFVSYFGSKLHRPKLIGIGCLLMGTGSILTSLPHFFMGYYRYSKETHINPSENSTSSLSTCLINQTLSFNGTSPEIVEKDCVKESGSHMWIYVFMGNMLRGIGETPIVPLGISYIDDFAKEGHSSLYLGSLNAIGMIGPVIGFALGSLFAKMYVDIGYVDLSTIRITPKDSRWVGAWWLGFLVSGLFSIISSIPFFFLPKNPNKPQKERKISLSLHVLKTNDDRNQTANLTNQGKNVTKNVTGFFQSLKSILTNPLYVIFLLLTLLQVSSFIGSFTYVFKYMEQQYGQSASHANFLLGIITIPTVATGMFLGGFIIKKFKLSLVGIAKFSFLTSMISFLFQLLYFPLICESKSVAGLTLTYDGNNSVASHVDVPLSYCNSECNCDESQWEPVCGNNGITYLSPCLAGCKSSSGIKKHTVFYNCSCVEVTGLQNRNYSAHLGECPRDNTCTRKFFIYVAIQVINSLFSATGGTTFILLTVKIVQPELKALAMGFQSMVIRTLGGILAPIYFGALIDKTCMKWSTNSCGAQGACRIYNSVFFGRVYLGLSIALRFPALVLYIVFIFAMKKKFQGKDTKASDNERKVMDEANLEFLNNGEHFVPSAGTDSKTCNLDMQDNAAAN

MATE1 = target: T3, MATE1 (Homo sapiens, UniProt Q96FL8); test: MATE1 uptake inhibition assay; format: in vitro ADME
T3 sequence (Q96FL8 1-570): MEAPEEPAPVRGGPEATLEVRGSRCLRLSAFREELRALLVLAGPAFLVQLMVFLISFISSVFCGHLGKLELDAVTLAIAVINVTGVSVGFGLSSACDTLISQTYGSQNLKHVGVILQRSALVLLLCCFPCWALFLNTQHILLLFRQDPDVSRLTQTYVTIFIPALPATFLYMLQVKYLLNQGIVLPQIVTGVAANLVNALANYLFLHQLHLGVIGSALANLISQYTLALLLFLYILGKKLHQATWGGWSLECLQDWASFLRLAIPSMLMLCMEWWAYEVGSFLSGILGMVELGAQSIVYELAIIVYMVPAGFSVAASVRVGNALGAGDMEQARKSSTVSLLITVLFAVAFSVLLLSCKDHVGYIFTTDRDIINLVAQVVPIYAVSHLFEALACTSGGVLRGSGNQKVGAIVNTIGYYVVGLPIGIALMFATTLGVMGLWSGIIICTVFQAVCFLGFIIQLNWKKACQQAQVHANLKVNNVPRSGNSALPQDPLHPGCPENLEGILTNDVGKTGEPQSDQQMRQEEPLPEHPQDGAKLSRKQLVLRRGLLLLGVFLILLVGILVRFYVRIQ

MDR1 = MDR1 (Homo sapiens, UniProt P08183); test: MDR1 monolayer substrate assay; format: in vitro ADME
Sequence of MDR1 (P08183 whole entry): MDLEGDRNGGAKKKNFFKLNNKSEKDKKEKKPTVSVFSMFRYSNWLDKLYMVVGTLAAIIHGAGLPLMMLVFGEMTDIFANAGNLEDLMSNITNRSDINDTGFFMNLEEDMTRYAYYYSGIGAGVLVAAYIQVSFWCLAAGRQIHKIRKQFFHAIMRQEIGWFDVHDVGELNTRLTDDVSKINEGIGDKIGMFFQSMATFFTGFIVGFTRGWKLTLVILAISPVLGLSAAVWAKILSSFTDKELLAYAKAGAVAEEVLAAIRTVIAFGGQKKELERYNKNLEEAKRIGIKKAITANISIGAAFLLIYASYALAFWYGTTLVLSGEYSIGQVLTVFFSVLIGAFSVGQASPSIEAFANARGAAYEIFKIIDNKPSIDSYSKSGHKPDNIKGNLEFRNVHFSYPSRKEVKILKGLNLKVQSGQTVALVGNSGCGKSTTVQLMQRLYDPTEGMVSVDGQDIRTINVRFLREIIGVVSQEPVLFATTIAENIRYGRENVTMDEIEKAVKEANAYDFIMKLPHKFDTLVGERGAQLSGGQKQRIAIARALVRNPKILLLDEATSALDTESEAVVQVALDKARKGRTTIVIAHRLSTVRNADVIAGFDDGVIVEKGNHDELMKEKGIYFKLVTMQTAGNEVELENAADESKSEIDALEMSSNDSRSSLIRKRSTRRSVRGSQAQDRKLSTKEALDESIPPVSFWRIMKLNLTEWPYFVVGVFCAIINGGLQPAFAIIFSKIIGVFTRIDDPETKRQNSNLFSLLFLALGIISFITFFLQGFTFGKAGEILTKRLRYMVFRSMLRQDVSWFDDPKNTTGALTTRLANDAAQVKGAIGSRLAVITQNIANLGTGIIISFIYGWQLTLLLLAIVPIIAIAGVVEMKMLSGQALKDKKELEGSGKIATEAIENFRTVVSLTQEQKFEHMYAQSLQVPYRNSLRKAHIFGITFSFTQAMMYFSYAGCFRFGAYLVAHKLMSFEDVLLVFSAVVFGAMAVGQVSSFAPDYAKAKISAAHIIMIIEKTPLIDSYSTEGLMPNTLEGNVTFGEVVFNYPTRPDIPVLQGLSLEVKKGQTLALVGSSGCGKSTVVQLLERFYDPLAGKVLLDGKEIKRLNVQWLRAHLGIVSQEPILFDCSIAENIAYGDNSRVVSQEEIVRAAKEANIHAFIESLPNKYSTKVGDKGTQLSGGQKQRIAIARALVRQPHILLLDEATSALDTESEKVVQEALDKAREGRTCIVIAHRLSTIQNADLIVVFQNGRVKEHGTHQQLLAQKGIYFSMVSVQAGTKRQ

OAT1 [3] = target: T4, OAT1 (Homo sapiens, UniProt Q4U2R8); test: OAT1 uptake substrate assay; format: in vitro ADME
T4 sequence (Q4U2R8 1-563): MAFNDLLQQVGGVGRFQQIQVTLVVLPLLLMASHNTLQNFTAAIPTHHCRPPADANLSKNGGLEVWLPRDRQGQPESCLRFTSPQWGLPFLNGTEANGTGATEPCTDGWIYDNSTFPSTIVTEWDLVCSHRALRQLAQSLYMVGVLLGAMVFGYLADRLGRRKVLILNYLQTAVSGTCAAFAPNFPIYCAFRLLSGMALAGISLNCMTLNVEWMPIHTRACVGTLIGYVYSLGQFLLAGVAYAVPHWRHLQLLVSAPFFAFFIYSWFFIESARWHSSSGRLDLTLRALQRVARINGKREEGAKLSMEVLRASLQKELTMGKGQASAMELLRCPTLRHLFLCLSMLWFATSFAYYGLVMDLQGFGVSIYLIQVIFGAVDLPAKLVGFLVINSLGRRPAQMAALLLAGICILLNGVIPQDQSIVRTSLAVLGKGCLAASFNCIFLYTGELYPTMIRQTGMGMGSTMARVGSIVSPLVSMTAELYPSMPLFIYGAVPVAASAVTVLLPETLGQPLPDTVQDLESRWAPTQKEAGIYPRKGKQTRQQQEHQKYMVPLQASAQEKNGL

OAT1 [4] = target: T4, OAT1; test: OAT1 uptake inhibition assay; format: in vitro ADME; conditions: 0.63–40 μM
CYP3A4 [5] = conditions: ocedurenone at 0.1, 1, or 10 μM, 72 h; inducer criterion 40%
OATP1B3 [6] = target: T2, OATP1B3; test: OATP1B3 uptake inhibition assay; format: in vitro ADME; conditions: at 40 µM
[7] = transporter-expressing vs control cells, 0.04–40 µm

N#Cc1ccc(N2N=C3c4ccc(C(=O)N5CCC(O)CC5)nc4CC[C@@H]3[C@@H]2C2CCCC2)cc1Cl [Ocedurenone, ocedurenone]
percent remaining activity of CYP1A2 (CYP1A2; ocedurenone at 200 μM): 92.9% | IC50 (CYP1A2; read-out: IC50 CYP1A2, recombinant CYP): > 200 µM | inhibition category CYP1A2 (CYP1A2; recombinant enzyme): little or no inhibition | percent remaining activity of CYP3A4 (midazolam-based) (CYP3A4 [1]; ocedurenone at 200 μM, midazolam probe): 70.2% | percent remaining activity of CYP3A4 (testosterone-based) (CYP3A4 [1]; ocedurenone at 200 μM, testosterone probe): 68.1% | IC50 (CYP3A4 [1]; read-out: IC50 CYP3A4 (midazolam-based), midazolam probe): > 200 µM | IC50 (CYP3A4 [1]; read-out: IC50 CYP3A4 (testosterone-based), testosterone probe): > 200 µM | inhibition category CYP3A4 (CYP3A4 [1]; recombinant enzyme): little or no inhibition | Substrate, OATP1B3 UPT (OATP1B3 [2]): not likely to be a substrate | Maximum fold accumulation, OATP1B3 UPT (OATP1B3 [2]; [7]): 1.1 | maximum inhibition of MATE1-mediated probe substrate accumulation (MATE1; at 40 µM): 95% | IC50 (MATE1; read-out: Inhibition results (IC50), MATE1 UPT, probe metformin (10 µm), Table 1): 6.7 µM | Substrate, MDR1 ML (MDR1): likely a substrate | Substrate, OAT1 UPT (OAT1 [3]): not likely to be a substrate | Maximum fold accumulation, OAT1 UPT (OAT1 [3]; [7]): 1.1 | interaction with human OAT1 transporter (inhibition) (OAT1 [4]): No interaction | percent CYP3A4 induction (of positive control) (CYP3A4 [5]): lower than 40% | maximum inhibition of OATP1B3-mediated probe substrate accumulation (OATP1B3 [6]): 58%
